According to PubChem BioAssay (NCI):
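Protocol summary: plate cells (96-well), add compound at 5 concentrations, incubate 48 h, interpolate endpoints linearly. The concentration for 50% growth inhibition is given as GI50. The concentration for full growth arrest is given as TGI.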

Assays:
Experiment in all cases: NCI-60 cell line screen, 48 h
[1] = test system: SF-295 CNS
[2] = test system: A498 renal
[3] = test system: U251 CNS
[4] = test system: SF-539 CNS
[5] = test system: OVCAR-5 ovarian
[6] = test system: HCT-15 colon
[7] = test system: MDA-MB-231 breast
[8] = test system: T-47D breast
[9] = test system: MOLT-4 leukemia
[10] = test system: HS 578T breast

SMILES	TGI [1] [µM]	TGI [2] [µM]	TGI [3] [µM]	TGI [4] [µM]	TGI [5] [µM]	TGI [6] [µM]	GI50 [7] [µM]	TGI [7] [µM]	GI50 [3] [µM]	GI50 [4] [µM]	GI50 [6] [µM]	GI50 [8] [µM]	TGI [8] [µM]	TGI [9] [µM]	TGI [10] [µM]	GI50 [1] [µM]	GI50 [2] [µM]	GI50 [9] [µM]	GI50 [5] [µM]	GI50 [10] [µM]
CC(C)c1cccc(C(C)C)c1N1C(=O)C(=O)C(c2nc3ccccc3o2)C(=O)C1=O	> 100	> 100	> 100	> 100	> 100	> 100														
CCCCCC(O)C(O)CCC[C@H](O)[C@H]1CC[C@H]([C@H]2CC[C@H]([C@H](O)CCCCCCCCCCCCC3=C[C@H](C)OC3=O)O2)O1 (some centres undefined)			> 100	37	35.4	40.6	17.6	82.9	8.47	12.1	5.48	2.12	25.6							
CN(C)CC1CC/C(=C\c2ccc3c(c2)OCO3)C1=O (centres undefined)	56.8	52.1	36.1	31	39.3	15		4.25						13.8	> 100					
ClCc1ccccc1Cn1cnc2ncnc(Cl)c21	20.5	32.8	4.4	4.98	7.3	2.91	2.78	6.97	1.92	2.35	1.36			4.24	5.96	7.93	18.6	1.65	2.84	2.29
[N-]=[N+]=NCCCn1c2c(c3ccc([N+](=O)[O-])cc3c1=O)C(=O)c1cc(Br)ccc1-2	> 100		> 100	> 100	> 100	> 100	> 100	> 100	45.8	> 100	> 100	> 100	> 100	> 100	> 100	1.66		1.15	> 100	> 100
COc1cc(/C=C/c2ccc(O)c(OC)c2)cc(OC)c1	54.7	84.4	> 100		> 100	45.8							> 100	> 100	59.1					
O=C(NNc1ccc(Cl)cc1)C1CCC(CNS(=O)(=O)c2ccccc2Cl)CC1 (centres undefined)	68.5	74.9		45.1	55	61.5	4.63	29		17.4	5.68			> 100	> 100	4.58	31.3	74.4	17.3	65.2
C1CCCCc2nc3c(nc2CCC1)c1nc2c(nc1c1nc4c(nc31)CCCCCCCC4)CCCCCCCC2	> 100	> 100	> 100	> 100	> 100	> 100								> 100						
Cc1ccc2nc(NC(=O)C(=O)C(C#N)c3ccc(Cl)cc3)sc2c1 (centres undefined)	> 50		> 50	> 50	> 50	> 50														
CC1=C(SC#N)S(=O)(=O)N(c2ccccc2)C(C)=C1SC#N	67.1	92.1	35.4	> 100	> 100	> 100								57.8						
CC(C)N(Cc1ccc(CN(C(=O)CCl)C(C)C)cc1)C(=O)CCl	3.88	4.27	3.32	3.25	3.97	3.64	2.1	6.42	1.77	1.67	1.38			8.13	16.8	1.81	1.9	2.33	1.91	2.75
NC1c2ccccc2Nc2ccccc21	17	22.8			25.6	14								8.1						
COc1ccc(C(=O)c2cc(C)c(OC)c(C)c2)c(OC)c1NC(C)=O	> 100	0.0795	> 100	0.848	> 100	> 100	0.363	> 100	0.353	0.214	0.452			> 100	> 100	0.046	0.0228	3.13	0.191	0.0715
CN1Cc2ccccc2/C=C\c2ccccc21	> 100	> 100	> 100	> 100		> 100		> 100					> 100		> 100					
COCCOc1cc(C)cc(/C=C(C)/C=C/C2=C(C)CCCC2(C)C)n1	> 100	> 100	> 100	> 100	> 100									> 100						
COc1ccc2nc(C(=O)c3ccccc3)c(C)cc2c1	9.23	10.3	10.8	13.8	> 100	> 40.8								> 100						
N#CC(C(=O)CCCC(=O)Nc1ccc(Cl)cc1Cl)c1ccccc1 (centres undefined)	> 100		> 100	> 100	> 100	> 100								> 100						
COC1=CC(C2c3cc4c(cc3[C@@H](Nc3ccc(F)cc3)C3COC(=O)[C@H]23)OCO4)=CC(=O)C1=O (some centres undefined)	11.8	16	13.7	20.3	98.2	26.9								14.5						
O=C(O)CCNS(=O)(=O)c1ccc2ccccc2c1	> 100	> 100	> 100	> 100	> 100	> 100								> 100						
Cc1cccc(C(=O)O)c1C(=O)c1cccc2ccccc12	> 100	> 100	> 100		> 100	> 100								> 100						
CC1OC(=O)C(O)=C1O (centres undefined)	> 100		> 100	> 100	> 100	> 100								> 100						
CCC(C)CC(C)CC(C)/C=C(\C)C1=C(C)CC(C)(O)O1 (centres undefined)		> 100	> 100	> 100		> 100								> 100						
